Tests used:
liver cells = test: Comet assay, liver cells; assay type: in vivo, rat
peripheral blood cells = test: Comet assay, peripheral blood cells; assay type: in vivo, rat
[1] = 1-Month Study, 200 mg/kg/day Days 28-29, Day 29, positive control
[2] = 3-Day Study, 200 mg/kg/day Days 2-3, Day 3, positive control

SMILES: CCOS(C)(=O)=O [EMS, ethyl methanesulfonate]
- Liver % tail intensity mean ± SD (liver cells; [1]): 30.79 ± 10.66 %
- Liver % tail intensity mean ± SD (liver cells; [2]): 28.07 ± 1.64 %
- Blood % tail intensity mean ± SD (peripheral blood cells; [1]): 26.41 ± 4.85 %
- Blood % tail intensity mean ± SD (peripheral blood cells; [2]): 24.56 ± 1.94 %

From publication PMC7317746 (Environmental and Molecular Mutagenesis, 2020)
